Values after ≈ are worked out from the molar mass of the structure shown.
What follows are compounds tested on Escherichia coli ATCC 25922 (assay: Minimal Inhibitory Concentration (MIC) determination, broth microdilution). Conditions: ATCC25922; strain Escherichia coli ATCC 25922; broth microdilution per CLSI M07-A10; 18-24 hours at 35±2° C.; lowest concentration for complete growth inhibition.
Type: cell-based
Protocol: Minimal Inhibitory Concentration (MIC) Determination:
The MIC of antibacterial compounds against multiple species and strains was determined using the broth microdilution method according to M07-A10 Clinical and Laboratory Standards Institute (CLSI) guidelines, using the appropriate broth medium. In short, the compound plates were prepared by dispensing 100 μL of each stock solution in the first well of a 96 well microtiter plate (MTP) at a concentration 100-fold higher than the final concentration desired in broth. Eleven serial 2-fold dilutions of the highest concentration were made in DMSO for new compounds and in water (or appropriate solution) for reference compounds [2]. 1 μL of each well was transferred in a new MTP, which served as the test plate by subsequent inoculation. This bacterial suspension was prepared from strains that were first sub-cultured on agar plates and incubated for 18-24 hours as appropriate. Following incubation, the inoculum was prepared from isolated colonies and adjusted to 0.5 McFarland turbidity standard (1 to 2×10^8 Colony Forming Units (CFU)/mL) in 0.9% saline. The bacterial suspension was then diluted 1:200 in appropriate sterile medium and within 15 minutes 100 μL/well were dispensed. Negative controls (lack of bacterial cells) and growth control wells (lack of compound) were included in all plates. MTPs were incubated for 18-24 hours at 35±2° C. in ambient air. The MIC value of each compound, expressed as μg/mL, was determined as the lowest concentration required for complete growth inhibition (no visible growth). • [1] CLSI (2015) Methods for dilution antimicrobial susceptibility tests for bacteria that grow aerobically; Approved Standard, Tenth Edition. CLSI Document M7-A10 (ISBN 1-56238-987-4). Wayne, PA: Clinical and Laboratory Standards Institute, 19087, USA. • [2] CLSI (2017) Performance Standards for Antimicrobial Susceptibility Testing; Twenty-Fifth Informational Supplement. CLSI Document M100-S27, CLSI, Wayne, Pennsylvania 19087, USA.
Table 1 provides the Minimal Inhibitory Concentrations (MIC) in micrograms per millilitre of the compounds of present invention obtained against the strain Escherichia coli ATCC 25922.

For C[C@H](C(=O)Nc1cc(C#N)c2c(c1)CC(O)(CN1CCC3(CC1)CN(c1cnc4c(n1)NC(=O)CO4)C(=O)O3)C2)N(C)C (stereo partly drawn) [Example 35, (2R)-N-[7-cyano-2-hydroxy-2-[[2-oxo-3-(3-oxo-4H-pyrazino[2,3-b][1,4]oxazin-6-yl)-1-oxa-3,8-diazaspiro[4.5]decan-8-yl]methyl]indan-5-yl]-2-(dimethylamino)propanamide], which MIC is on record?
The MIC was 1 µg/mL (≈ 1.69 µM).

Which MIC does the source give for C[C@H](C(=O)Nc1cc(F)c2c(c1)C(O)C(CN1CCC3(CC1)CN(c1cnc4c(n1)NC(=O)CO4)C(=O)O3)C2)N(C)C (stereo partly drawn) [Example 65, (2R)-2-(Dimethylamino)-N-[7-fluoro-3-hydroxy-2-[[2-oxo-3-(3-oxo-4H-pyrazino[2,3-b][1,4]oxazin-6-yl)-1-oxa-3,8-diazaspiro[4.5]decan-8-yl]methyl]indan-5-yl]propanamide] here?
Its MIC is 0.5 µg/mL (≈ 0.857 µM).

Which MIC does the source give for CN(C)[C@]1(C(=O)Nc2cc(F)c3c(c2)CC(CNCCC2CN(c4cnc5c(n4)NC(=O)CO5)C(=O)O2)C3)CCOC1 (some centres unmarked) [Example 19] here?
The MIC was 2 µg/mL (≈ 3.43 µM).

With O=C1COc2ncc(N3CC4(CCN(CC5Cc6c(F)cc(NC(=O)[C@@H]7C[C@@H](O)CN7)c(F)c6C5)CC4)OC3=O)nc2N1 (stereo partly drawn) [Example 52, (2S,4R)—N-[4,7-Difluoro-2-[[2-oxo-3-(3-oxo-4H-pyrazino[2,3-b][1,4]oxazin-6-yl)-1-oxa-3,8-diazaspiro[4.5]decan-8-yl]methyl]indan-5-yl]-4-hydroxy-pyrrolidine-2-carboxamide] as the compound, how does the MIC read?
The MIC was 0.25 µg/mL (≈ 0.417 µM).

How did the MIC turn out when Cc1nc(NC(=O)[C@@H](C)N(C)C)cc2c1CC(CN1CCC3(CC1)CN(c1cnc4c(n1)NC(=O)CO4)C(=O)O3)C2 (stereo partly drawn) [Example 29, (2R)-2-(dimethylamino)-N-[1-methyl-6-[[2-oxo-3-(3-oxo-4H-pyrazino[2,3-b][1,4]oxazin-6-yl)-1-oxa-3,8-diazaspiro[4.5]decan-8-yl]methyl]-6,7-dihydro-5H-cyclopenta[c]pyridin-3-yl]propanamide] was run?
Its MIC is 0.5 µg/mL (≈ 0.886 µM).

Which MIC does the source give for C[C@H](C(=O)Nc1cc(F)c2c(c1)C(O)C(CNCC[C@@H]1CN(c3cnc4c(n3)NC(=O)CO4)C(=O)O1)C2)N(C)C (stereo partly drawn) [Example 66, (2R)-2-(Dimethylamino)-N-[7-fluoro-3-hydroxy-2-[[2-[(5R)-2-oxo-3-(3-oxo-4H-pyrazino[2,3-b][1,4]oxazin-6-yl)oxazolidin-5-yl]ethylamino]methyl]indan-5-yl]propanamide] here?
Its MIC is 4 µg/mL (≈ 7.17 µM).

For O=C(CN1CCC1)Nc1cc(F)c2c(c1)CC(CNCCC1CN(c3cnc4c(n3)NC(=O)CO4)C(=O)O1)C2 (centres unmarked) [Example 8, 2-(azetidin-1-yl)-N-[7-fluoro-2-[2-[2-oxo-3-(3-oxo-4H-pyrazino[2,3-b][1,4]oxazin-6-yl)oxazolidin-5-yl]ethylaminomethyl]indan-5-yl]acetamide], which MIC is on record?
Its MIC is 0.125 µg/mL (≈ 0.232 µM).

How did the MIC turn out when CC(C(=O)Nc1cc(F)c2c(c1)CC(CNCC[C@@H]1CN(c3cnc4c(n3)NC(=O)CO4)C(=O)O1)C2)N1CCC1 (some centres unmarked) [Example 16] was run?
Its MIC is 0.125 µg/mL (≈ 0.226 µM).

N[C@H](CO)C(=O)Nc1cc(F)c2c(c1)CC(CNCCC1CN(c3cnc4c(n3)NC(=O)CO4)C(=O)O1)C2 (stereo partly drawn) [Example 38, (2R)-2-amino-N-[7-fluoro-2-[[2-[2-oxo-3-(3-oxo-4H-pyrazino[2,3-b][1,4]oxazin-6-yl)oxazolidin-5-yl]ethylamino]methyl]indan-5-yl]-3-hydroxy-propanamide] was tested. Which MIC did it give?
Its MIC is 0.5 µg/mL (≈ 0.944 µM).

How did the MIC turn out when CC(C)(O)C(=O)Nc1cc(C#N)c2c(c1)CC(CNCCC1CN(c3ccc4c(n3)NC(=O)CO4)C(=O)O1)C2 (centres unmarked) [Example 21, N-[7-cyano-2-[[2-[2-oxo-3-(3-oxo-4H-pyrido[3,2-b][1,4]oxazin-6-yl)oxazolidin-5-yl]ethylamino]methyl]indan-5-yl]-2-hydroxy-2-methyl-propanamide] was run?
The MIC was 0.5 µg/mL (≈ 0.935 µM).

How did the MIC turn out when Cc1cc(NC(=O)[C@@H](C)N(C)C)nc2c1CC(CNCCC1CN(c3cnc4c(n3)NC(=O)CO4)C(=O)O1)C2 (stereo partly drawn) [Example 25, (2R)-2-(dimethylamino)-N-[4-methyl-6-[[2-[2-oxo-3-(3-oxo-4H-pyrazino[2,3-b][1,4]oxazin-6-yl)oxazolidin-5-yl]ethylamino]methyl]-6,7-dihydro-5H-cyclopenta[b]pyridin-2-yl]propanamide] was run?
The MIC was 1 µg/mL (≈ 1.86 µM).

For C[C@H](C(=O)Nc1ccc2c(c1F)CC(CNCCC1CN(c3cnc4c(n3)NC(=O)CO4)C(=O)O1)C2)N(C)C (some centres unmarked) [Example 23], which MIC is on record?
Its MIC is 0.5 µg/mL (≈ 0.923 µM).

For Cc1cc(NC(=O)CN(C)C)nc2c1CC(CNCCC1CN(c3cnc4c(n3)NC(=O)CO4)C(=O)O1)C2 (centres unmarked) [Example 24], which MIC is on record?
Its MIC is 0.5 µg/mL (≈ 0.953 µM).

For O=C1COc2ncc(N3CC(CCNCC4Cc5cc(NC(=O)[C@H]6C[C@H](O)CN6)cc(F)c5C4)OC3=O)nc2N1 (stereo partly drawn) [Example 47, (2R,4S)-N-[7-fluoro-2-[[2-[2-oxo-3-(3-oxo-4H-pyrazino[2,3-b][1,4]oxazin-6-yl)oxazolidin-5-yl]ethylamino]methyl]indan-5-yl]-4-hydroxy-pyrrolidine-2-carboxamide], which MIC is on record?
Its MIC is 0.25 µg/mL (≈ 0.45 µM).

How did the MIC turn out when O=C1COc2ncc(N3CC(CCNCC4Cc5cc(NC(=O)[C@H]6C[C@@H](O)CN6)cc(F)c5C4)OC3=O)nc2N1 (some centres unmarked) [Example 45] was run?
The MIC was 1 µg/mL (≈ 1.8 µM).

Which MIC does the source give for C[C@H](C(=O)Nc1cc(F)c2c(c1)CC(CNCCC1CN(c3cnc4c(n3)NC(=O)CO4)C(=O)O1)C2)N(C)C (stereo partly drawn) [Example 4, (2R)-2-(dimethylamino)-N-[7-fluoro-2-[[2-[2-oxo-3-(3-oxo-4H-pyrazino[2,3-b][1,4]oxazin-6-yl)oxazolidin-5-yl]ethylamino]methyl]indan-5-yl]propanamide] here?
Its MIC is 0.125 µg/mL (≈ 0.231 µM).

For C[C@H](C(=O)Nc1cc(F)c2c(c1F)CC(O)(CNCC1CN(c3cnc4c(n3)NC(=O)CO4)C(=O)O1)C2)N(C)C (some centres unmarked) [Example 30], which MIC is on record?
Its MIC is 1 µg/mL (≈ 1.78 µM).

Cc1ncc(C(=O)Nc2cc(F)c3c(c2)CC(CNCCC2CN(c4cnc5c(n4)NC(=O)CO5)C(=O)O2)C3)o1 (centres unmarked) [Example 15, N-[7-fluoro-2-[[2-[2-oxo-3-(3-oxo-4H-pyrazino[2,3-b][1,4]oxazin-6-yl)oxazolidin-5-yl]ethylamino]methyl]indan-5-yl]-2-methyl-oxazole-5-carboxamide] was tested. Which MIC did it give?
Its MIC is 0.25 µg/mL (≈ 0.453 µM).

For O=C1COc2ncc(N3CC(CCNCC4Cc5cc(NC(=O)[C@@H]6C[C@@H](O)CN6)cc(F)c5C4)OC3=O)nc2N1 (stereo partly drawn) [Example 37, (2S,4R)-N-[7-fluoro-2-[[2-[2-oxo-3-(3-oxo-4H-pyrazino[2,3-b][1,4]oxazin-6-yl)oxazolidin-5-yl]ethylamino]methyl]indan-5-yl]-4-hydroxy-pyrrolidine-2-carboxamide], which MIC is on record?
The MIC was 0.5 µg/mL (≈ 0.9 µM).

For O=C(CN1CC2CC2C1)Nc1cc(F)c2c(c1)CC(CNCCC1CN(c3cnc4c(n3)NC(=O)CO4)C(=O)O1)C2 (centres unmarked) [Example 12, 2-(3-azabicyclo[3.1.0]hexan-3-yl)-N-[7-fluoro-2-[2-[2-oxo-3-(3-oxo-4H-pyrazino[2,3-b][1,4]oxazin-6-yl)oxazolidin-5-yl]ethylaminomethyl]indan-5-yl]acetamide], which MIC is on record?
The MIC was 0.125 µg/mL (≈ 0.221 µM).

For C[C@H](C(=O)Nc1cc(F)c2c(c1)C(F)C(CNCC[C@@H]1CN(c3cnc4c(n3)NC(=O)CO4)C(=O)O1)C2)N(C)C (stereo partly drawn) [Example 67, (2R)—N-[3,7-Difluoro-2-[[2-[(5R)-2-oxo-3-(3-oxo-4H-pyrazino[2,3-b][1,4]oxazin-6-yl)oxazolidin-5-yl]ethylamino]methyl]indan-5-yl]-2-(dimethylamino)propanamide], which MIC is on record?
The MIC was 0.5 µg/mL (≈ 0.894 µM).

Which MIC does the source give for Cc1cc(NC(=O)CN2CCC2)nc2c1CC(CNCCC1CN(c3cnc4c(n3)NC(=O)CO4)C(=O)O1)C2 (centres unmarked) [Example 26, 2-(azetidin-1-yl)-N-[4-methyl-6-[[2-[2-oxo-3-(3-oxo-4H-pyrazino[2,3-b][1,4]oxazin-6-yl)oxazolidin-5-yl]ethylamino]methyl]-6,7-dihydro-5H-cyclopenta[b]pyridin-2-yl]acetamide] here?
Its MIC is 0.5 µg/mL (≈ 0.932 µM).

For CN1C[C@H](O)C[C@H]1C(=O)Nc1cc(F)c2c(c1)CC(CNCCC1CN(c3cnc4c(n3)NC(=O)CO4)C(=O)O1)C2 (stereo partly drawn) [Example 49, (2S,4R)—N-[7-Fluoro-2-[[2-[2-oxo-3-(3-oxo-4H-pyrazino[2,3-b][1,4]oxazin-6-yl)oxazolidin-5-yl]ethylamino]methyl]indan-5-yl]-4-hydroxy-1-methyl-pyrrolidine-2-carboxamide], which MIC is on record?
The MIC was 0.25 µg/mL (≈ 0.439 µM).

How did the MIC turn out when CN(CC(=O)Nc1cc(F)c2c(c1)CC(CNCCC1CN(c3cnc4c(n3)NC(=O)CO4)C(=O)O1)C2)C1COC1 (centres unmarked) [Example 11] was run?
Its MIC is 0.5 µg/mL (≈ 0.878 µM).

Same assay, conditions: strain Escherichia coli ATCC 25922; broth microdilution per CLSI M07-A10; 18-24 hours at 35±2° C.; lowest concentration for complete growth inhibition

For C[C@H](C(=O)Nc1cc(F)c2c(c1)CC(CNCC[C@H]1CN(c3cnc4c(n3)NC(=O)CO4)C(=O)O1)C2)N(C)C (single isomer, unassigned) [Example 69], which “Escherichia coli growth inhibition MIC” value is on record?
Its value is 0.125 µg/mL.

Which “Escherichia coli growth inhibition MIC” value does the source give for C[C@@]1(C(=O)Nc2cc(F)c3c(c2)CC(CN2CCC4(CC2)CN(c2cnc5c(n2)NC(=O)CO5)C(=O)O4)C3)C[C@@H](O)CN1 (single isomer, unassigned) [Example 73] here?
Its value is 0.5 µg/mL.

From patent US20240254140A1, “COMPOUNDS AND THEIR USE IN THE TREATMENT OF BACTERIAL INFECTION” (Hoffmann-La Roche Inc., priority 2021, published 2024)
